Results on 1 compound are retold here after patent US20250171518A1, “METHODS FOR PREPARING CELLS FOR ADOPTIVE T CELL THERAPY” (City of Hope, priority 2015, published 2025).

For this assay, the system named is CD19 CAR T cells from bulk T cells (PBMC), TCM, naïve/memory T cells. Put plainly: Generation of memory CD19 CAR T cells from different T cell subsets. Format: cell-based, human. An excerpt: FIGS. 6A-6B: Akt inhibition promotes the generation of memory CD19 CAR T cells from different T cell subsets. […] Resultant CD19 CAR T cells were stained with biotinylated Erbitux (cetuximab), followed by streptavidin-PE for CAR detection and antibodies against CD62L. Percentages of CAR+CD62L+ cells are depicted on the basis of the gating of isotype-stained cells. (B) Percentages of CD62L+CD28+ T cells after gating on CAR+CD8+ from six lines of CD19 CAR T cells derived from two different donors are presented.
Resultant CD19CAR T cells were stained with biotinylated Erbitux (cetuximab), followed by streptavidin-PE for CAR detection and antibodies against CD62L. Cells expressing CD62 represent TCM cells or TSCM cells.
Samples from two donors were used to prepare PBMC, TCM, and TN/TCM/TSCM cell populations.

Regarding `O=c1[nH]c2ccccc2n1C1CCN(Cc2ccc(-c3nc4cc5[nH]cnc5cc4nc3-c3ccccc3)cc2)CC1` [Akt inhibitor VIII, 1,3-dihydro-1-[1-[[4-(6-phenyl-1H-imidazo[4,5-g]quinoxalin-7-yl)phenyl]methyl]-4-piperidinyl]-2H-benzimidazol-2-one], the “percentage of CD62L+ expressing CAR T cells” value (1 μM Akt inhibitor VIII, 17-21 days, bulk T cells, TCM cells or naïve/memory T cells, FIG. 6A) is “increases the percentage of CD62L+ expressing CAR T cells”. Further, the “number of CD62L+/CD28+/CAR+ T cells” value (six cell populations from two donors, 17-21 days with or without Akt inhibitor VIII, FIG. 6B) was “increased the number of CD62L+/CD28+/CAR+ T cells”.
